Measurements: patent publication US9339522B2, “Method for regulating blood glucose level” (SINPHAR PHARMACEUTICAL CO., LTD., priority 2013, dated 2016)

What was measured:
[1] = tested on: human hepatocellular liver carcinoma cell line (HepG2); experiment: Carbohydrate consumption assay in HepG2 cells; format: cell-based
Experimental: A carbohydrate consumption assay was conducted by using human hepatocellular liver carcinoma cell line (HepG2, Bioresource Collection and Research Center, BCRC number: 60025). The cells were treated with 1000 μg/ml glucose, and then treated with 100 nM insulin, 50 μg/ml Cistanche tubulosa extract (CTE), 12.5 μg/ml of echinacoside, 1.25 μg/ml of acteoside, or 2.25 μg/ml of isoacteoside (i.e., an active component by an amount of what it presents in the extract). After 1 hour, the carbohydrate consumption level was determined. The results are shown in FIG. 10, wherein the data were shown as mean±standard deviation (n=3); ***P<0.001 (as compared to the control group).
To further confirm if the active components that are present in Cistanche tubulosa extract have the effect of accelerating liver cells to uptake blood sugar, a carbohydrate consumption assay as described above was conducted by using different concentrations of Cistanche tubulosa extract, echinacoside, acteoside and isoacteoside to treated the HepG2 cells. The results are shown in FIG. 11, wherein the data were shown as mean±standard deviation (n=3); **P<0.01; ***P<0.001 (as compared to the control group); #P<0.05 (as compared to the insulin group).

[2] = Body weight and caloric intake of diabetic SD rats during 6 weeks treatment; format: in vivo, SD (Sprague-Dawley) rats; conditions: FIG. 1; measured weekly; comparison between groups; rosiglitazone 0.571 mg/kg, CTE 80, 160, 320 mg/kg oral once daily 6 weeks
Experimental: 4-week-old male SD (Sprague-Dawley) rats were fed for one week, and then randomly divided into six groups (10 rats in each group), including five experimental groups and a control group. The rats in the experimental groups were intraperitoneally injected with 230 mg/kg body weight of nicotinamide, and then intraperitoneally injected with 65 mg/kg body weight of streptozocin to induced diabetes mellitus (the DM group). The control group was intraperitoneally injected with the same volume of a citrate buffer (pH 4.5). After a week, the fasting blood glucose of the induced diabetic rats in the experimental groups were measured, to confirmed the fasting blood glucose>[…]. The rats were then fed with a 45% high fat diet (HFD) for 6 weeks. Then, using the dosage shown in Table 1, the rats were orally administered with 0.571 mg/kg body weight of rosiglitazone (a medicine for regulating blood glucose levels, which is an insulin sensitizer) (DMR group) or 80 mg/kg body weight of Cistanche tubulosa extract (CTE) (DME1 group), 160 mg/kg body weight of CTE (DME2 group), or 320 mg/kg body weight of CTE (DME4 group), once daily for 6 weeks. The rats in the control group and the DM group were administered with double distilled water once daily for 6 weeks. The body weight of the rats was measured weekly and the caloric intake was calculated. […]

induced diabetic rats [3] = experiment: Determination of fasting plasma glucose concentration; format: in vivo, SD (Sprague-Dawley) rats; conditions: DMR group: rosiglitazone 0.571 mg/kg body weight oral once daily 6 weeks; DM + 45% HFD rats; mean, n = 10
Experimental: (§1) 4-week-old male SD (Sprague-Dawley) rats were fed for one week, and then randomly divided into six groups (10 rats in each group), including five experimental groups and a control group. The rats in the experimental groups were intraperitoneally injected with 230 mg/kg body weight of nicotinamide, and then intraperitoneally injected with 65 mg/kg body weight of streptozocin to induced diabetes mellitus (the DM group). The control group was intraperitoneally injected with the same volume of a citrate buffer (pH 4.5). […] The rats in the control group and the DM group were administered with double distilled water once daily for 6 weeks. The body weight of the rats was measured weekly and the caloric intake was calculated.
(§2) After the above glucose tolerance test, the rats were sacrificed, and the blood samples were taken from the celiac artery. The blood samples were centrifuged at 3000 rpm, 4° C. for 15 minutes. The supernatant was collected, which is the plasma. Other tissue of the rats was also taken out and weighed, and then stored at −80° C. for the following biochemical data analysis.

induced diabetic rats [4] = experiment: Determination of total triglyceride concentration in plasma; format: in vivo, SD (Sprague-Dawley) rats; conditions: DMR group: rosiglitazone 0.571 mg/kg body weight oral once daily 6 weeks, DM + 45% HFD rats, mean, n = 10
Experimental: as §1, §2

induced diabetic rats [5] = experiment: Determination of total cholesterol concentration in plasma; format: in vivo, SD (Sprague-Dawley) rats; conditions: DMR group: rosiglitazone 0.571 mg/kg body weight oral once daily 6 weeks, DM + 45% HFD rats, mean, n = 10
Experimental: as §1, §2

induced diabetic rats [6] = experiment: Determination of plasma insulin concentration (ELISA); format: in vivo, SD (Sprague-Dawley) rats; conditions: DMR group: rosiglitazone 0.571 mg/kg body weight oral once daily 6 weeks, DM + 45% HFD rats, mean, n = 10
Experimental: as §1, §2

induced diabetic rats [7] = experiment: Determination of plasma leptin concentration (enzyme immunoassay); format: in vivo, SD (Sprague-Dawley) rats; conditions: DMR group: rosiglitazone 0.571 mg/kg body weight oral once daily 6 weeks, DM + 45% HFD rats, mean, n = 10
Experimental: as §1, §2

induced diabetic rats [8] = experiment: Homeostasis model assessment equation of insulin resistance (HOMA-IR); format: in vivo, SD (Sprague-Dawley) rats; conditions: DMR group: rosiglitazone 0.571 mg/kg body weight oral once daily 6 weeks; DM + 45% HFD rats; mean, n = 10
Experimental: 4-week-old male SD (Sprague-Dawley) rats were fed for one week, and then randomly divided into six groups (10 rats in each group), including five experimental groups and a control group. The rats in the experimental groups were intraperitoneally injected with 230 mg/kg body weight of nicotinamide, and then intraperitoneally injected with 65 mg/kg body weight of streptozocin to induced diabetes mellitus (the DM group). The control group was intraperitoneally injected with the same volume of a citrate buffer (pH 4.5). After a week, the fasting blood glucose of the induced diabetic rats in the experimental groups were measured, to confirmed the fasting blood glucose>[…]. The rats were then fed with a 45% high fat diet (HFD) for 6 weeks. […] The body weight of the rats was measured weekly and the caloric intake was calculated. […]
The homeostasis model assessment equation of insulin resistance (HOMA-IR) was calculated by the formula as follows: HOMA-IR=fasting plasma insulin concentration (mU/ml)×fasting plasma glucose concentration (mmole/L)÷22.5

induced diabetic rats [9] = experiment: Liver and kidney function indicators in plasma (urea, creatinine, ALT, AST); format: in vivo, SD (Sprague-Dawley) rats; conditions: DMR group: rosiglitazone 0.571 mg/kg body weight oral once daily 6 weeks, DM + 45% HFD rats, mean, n = 10
Experimental: as §1, §2
It has been known that diabetes mellitus may cause a lot of complications.

induced diabetic rats [10] = experiment: Plasma antioxidant enzymes (SOD, catalase, GPx); format: in vivo, SD (Sprague-Dawley) rats; conditions: DMR group: rosiglitazone 0.571 mg/kg body weight oral once daily 6 weeks, DM + 45% HFD rats, mean, n = 10
Experimental: as §1, §2
It has been known that both Type I diabetes mellitus and Type II diabetes mellitus may cause the decreased expression of antioxidant enzymes in the body, and thus, increases oxidative stress. In this experiment, the concentrations of superoxide dismutase (SOD) catalase, and glutathione peroxidase (GPx) in the plasma of the rats were analyzed by an SOD detection kit, a catalase detection kit, and a GPx detection kit (Eugene-Chen CO., LTD, TW), respectively, to analyze the effect of CTE on the expression levels of antioxidant enzymes.

induced diabetic rats [11] = experiment: Over-oxidation of plasma lipid (plasma malondialdehyde); format: in vivo, SD (Sprague-Dawley) rats; conditions: DMR group: rosiglitazone 0.571 mg/kg body weight oral once daily 6 weeks, DM + 45% HFD rats, mean, n = 10
Experimental: as §1, §2

[12] = Weights of the liver, kidney, heart, and abdominal fat of the rats; format: in vivo, SD (Sprague-Dawley) rats; conditions: DMR group: rosiglitazone 0.571 mg/kg body weight oral once daily 6 weeks; DM + 45% HFD rats; mean, n = 10
Experimental: 4-week-old male SD (Sprague-Dawley) rats were fed for one week, and then randomly divided into six groups (10 rats in each group), including five experimental groups and a control group. The rats in the experimental groups were intraperitoneally injected with 230 mg/kg body weight of nicotinamide, and then intraperitoneally injected with 65 mg/kg body weight of streptozocin to induced diabetes mellitus (the DM group). The control group was intraperitoneally injected with the same volume of a citrate buffer (pH 4.5). After a week, the fasting blood glucose of the induced diabetic rats in the experimental groups were measured, to confirmed the fasting blood glucose>[…]. The rats were then fed with a 45% high fat diet (HFD) for 6 weeks. Then, using the dosage shown in Table 1, the rats were orally administered with 0.571 mg/kg body weight of rosiglitazone (a medicine for regulating blood glucose levels, which is an insulin sensitizer) (DMR group) or 80 mg/kg body weight of Cistanche tubulosa extract (CTE) (DME1 group), 160 mg/kg body weight of CTE (DME2 group), or 320 mg/kg body weight of CTE (DME4 group), once daily for 6 weeks. The rats in the control group and the DM group were administered with double distilled water once daily for 6 weeks. The body weight of the rats was measured weekly and the caloric intake was calculated. The results are shown in FIG. 1 (body weight) and FIG. 2 (caloric intake).
In this experiment, the weights of the liver, kidney, heart, and abdominal fat of the rats treated with different conditions for 6 weeks were determined.

liver cells = conditions: acteoside obtained from plantago, CN 102283854 A; cited from earlier work
[13] = tested on: mice having type I diabetes or type II diabetes induced by different medicaments; conditions: mice with induced type I or type II diabetes; acteoside obtained from plantago; CN 102283854 A; cited from earlier work
[14] = FIG. 11, 5 μg/ml and 50 μg/ml, HepG2, compared to the control group, dose dependence
[15] = FIG. 11, very low concentration, such as 5 μg/ml, HepG2

## C[C@@H]1O[C@@H](O[C@@H]2[C@@H](O)[C@H](OCCc3ccc(O)c(O)c3)O[C@H](CO[C@@H]3O[C@H](CO)[C@@H](O)[C@H](O)[C@H]3O)[C@H]2OC(=O)/C=C/c2ccc(O)c(O)c2)[C@H](O)[C@H](O)[C@H]1O [echinacoside]
[1]; FIG. 10, 12.5 μg/ml, HepG2, 1000 μg/ml glucose, after 1 hour, compared to the control group
  Carbohydrate consumption level: effectively increase
[1]; [14]
  Carbohydrate consumption level: effectively increase
[1]; [15]
  Carbohydrate consumption level: increase

## CN(CCOc1ccc(CC2SC(=O)NC2=O)cc1)c1ccccn1 (stereo not shown) [rosiglitazone]
[2]
  Body weight: no significant difference
Induced diabetic rats [3]
  Fasting blood glucose: 134.37 mg/dL
Induced diabetic rats [4]
  The total triglyceride: 62.77 mg/dL
Induced diabetic rats [5]
  Total cholesterol: 106.90 mg/dL
Induced diabetic rats [6]
  Insulin: 3.57 ng/mL
Induced diabetic rats [7]
  Leptin: 6.38 ng/mL
Induced diabetic rats [8]
  HOMA-IR: 2.37 μg · mmole/L^2
Induced diabetic rats [9]
  ALT: 29.88 U/L
  AST: 38.24 U/L
  AST/ALT: 1.34
  Creatinine: 1.19 mg/dL
  Urea: 19.14 mg/dL
Induced diabetic rats [10]
  Catalase: 60.05 U/mg protein
  Glutathione peroxidase: 811.08 U/mg protein
  Superoxide dismutase: 0.65 U/mg protein
Induced diabetic rats [11]
  Malondialdehyde: 13.38 nM/ml
[12]
  Abdominal fat weight, percentage compared to body weight: 2.49%
  Heart weight, percentage compared to body weight: 0.34%
  Kidney weight, percentage compared to body weight: 0.34%
  Liver weight, percentage compared to body weight: 3.21%

## C[C@@H]1O[C@@H](O[C@@H]2[C@@H](O)[C@H](OCCc3ccc(O)c(O)c3)O[C@H](COC(=O)/C=C/c3ccc(O)c(O)c3)[C@H]2O)[C@H](O)[C@H](O)[C@H]1O [isoacteoside]
[1]; FIG. 10, 2.25 μg/ml, HepG2, 1000 μg/ml glucose, after 1 hour, compared to the control group
  Carbohydrate consumption level: effectively increase
[1]; [14]
  Carbohydrate consumption level: effectively increase
[1]; [15]
  Carbohydrate consumption level: increase

## C[C@@H]1O[C@@H](O[C@@H]2[C@@H](O)[C@H](OCCc3ccc(O)c(O)c3)O[C@H](CO)[C@H]2OC(=O)/C=C/c2ccc(O)c(O)c2)[C@H](O)[C@H](O)[C@H]1O [acteoside]
[1]; FIG. 10, 1.25 μg/ml, HepG2, 1000 μg/ml glucose, after 1 hour, compared to the control group
  Carbohydrate consumption level: not obvious
[1]; [14]
  Carbohydrate consumption level: effectively increase
Liver cells
  Consumption of glucose: effective in promoting the consumption of glucose
[13]
  Fasting blood glucose level: decrease
  Serum insulin level: enhancing
